Results as given in patent US7989639B2 (Novartis AG, priority 2006, dated 2011).
Where a name gives a salt, the structure may show the parent alone.

Assays:
Assay type in all cases: physicochemical
[1] = Thermogravimetric analysis (TGA) of the salts: loss on drying, desolvation and decomposition temperature; conditions: for Tdecomposition: approximated by onset of first derivative of thermogravimetric curve vs. temperature, salt sample as obtained from the solvent/temperature; for Tdesolvation: value in brackets after LOD
From the text: In addition, “loss on drying” (LOD) refers to weight loss determined between ambient and decomposition temperatures. The later is approximated by the onset of the first derivative of the thermogravimetric curve vs. temperature. […] Salt formation, stoichiometry, and the presence or absence of solvents is confirmed by observing the ^1H-NMR chemical shifts of the corresponding salt forming agents and reaction solvents (the tables contain one characteristic chemical shift for salt forming agents or solvents). […] The extent of protonation of the free base is assessed by the change in the chemical shift of the benzylic (Hbz) protons. […] Finally, “-” indicates a measurement not taken.
A stoichiometric amount of acetic acid was subsequently added to the suspension. The mixture was stirred at either 60° C. or ambient temperature (where a clear solution formed, stirring continued at 4° C.). Solids were collected by filtration and analyzed by XRPD, TGA and in some instances ^1H-NMR.

[2] = Hygroscopicity / moisture uptake observed on isolation of the salts; conditions: observation on isolated solid / during filtration
Protocol: A stoichiometric amount of sodium hydroxide was subsequently added to the suspension. The mixture was stirred at 50° C. Once a clear solution formed, stirring continued at 4° C. Solids were collected by filtration and analyzed by XRPD and TGA.
It is noted that the initially formed yellow powder is a polymorph of the mesylate salt that contains more than the equimolar amount of methane sulfonic acid. […] Upon gentle heating to 40 or 50° C. and within 2 to 4 hours, the yellow powder converts to a white crystalline solid that contains the equimolar amount of the methane sulfonic acid. This salt is non-hygroscopic. It is also advised that addition of the methane sulfonic acid is done at ambient temperature and the temperature increased afterwards. It was observed that addition at higher temperature afforded the immediate precipitation of the salt as a soft and gummy material.

[3] = Thermogravimetric analysis (TGA) of the salts: loss on drying, desolvation and decomposition temperature; conditions: isothermal hold at 120° C. for 10 minutes

Tdecomposition [1]	SMILES	also measured
213.2 °C	Cc1[nH]c2ccccc2c1CCNCc1ccc(/C=C/C(=O)NO)cc1 [hemi-fumarate salt form B, N-hydroxy-3-[4-[[[2-(2-methyl-1H-indol-3-yl)ethyl]amino]methyl]phenyl]-2E-2-propenamide]	
	Cc1[nH]c2ccccc2c1CCNCc1ccc(/C=C/C(=O)NO)cc1 [potassium salt, N-hydroxy-3-[4-[[[2-(2-methyl-1H-indol-3-yl)ethyl]amino]methyl]phenyl]-2E-2-propenamide]	Hygroscopicity [2]: highly hygroscopic
95 °C	Cc1[nH]c2ccccc2c1CCNCc1ccc(/C=C/C(=O)NO)cc1 [hemi-malate salt form SA, N-hydroxy-3-[4-[[[2-(2-methyl-1H-indol-3-yl)ethyl]amino]methyl]phenyl]-2E-2-propenamide]	
118.9 °C	Cc1[nH]c2ccccc2c1CCNCc1ccc(/C=C/C(=O)NO)cc1 [maleate salt polymorph from 2-propanol (yellow powder)] [N-hydroxy-3-[4-[[[2-(2-methyl-1H-indol-3-yl)ethyl]amino]methyl]phenyl]-2E-2-propenamide]	
172.8 °C	Cc1[nH]c2ccccc2c1CCNCc1ccc(/C=C/C(=O)NO)cc1 [mesylate salt forms A + B, N-hydroxy-3-[4-[[[2-(2-methyl-1H-indol-3-yl)ethyl]amino]methyl]phenyl]-2E-2-propenamide]	
159.8 °C	Cc1[nH]c2ccccc2c1CCNCc1ccc(/C=C/C(=O)NO)cc1 [hemi-fumarate salt form HA, N-hydroxy-3-[4-[[[2-(2-methyl-1H-indol-3-yl)ethyl]amino]methyl]phenyl]-2E-2-propenamide]	
	Cc1[nH]c2ccccc2c1CCNCc1ccc(/C=C/C(=O)NO)cc1 [zinc salt, N-hydroxy-3-[4-[[[2-(2-methyl-1H-indol-3-yl)ethyl]amino]methyl]phenyl]-2E-2-propenamide]	Hygroscopicity [2]: less hygroscopic than the sodium or potassium salt
150 °C	Cc1[nH]c2ccccc2c1CCNCc1ccc(/C=C/C(=O)NO)cc1 [maleate salt form HA, N-hydroxy-3-[4-[[[2-(2-methyl-1H-indol-3-yl)ethyl]amino]methyl]phenyl]-2E-2-propenamide]	
	Cc1[nH]c2ccccc2c1CCNCc1ccc(/C=C/C(=O)NO)cc1 [calcium salt, N-hydroxy-3-[4-[[[2-(2-methyl-1H-indol-3-yl)ethyl]amino]methyl]phenyl]-2E-2-propenamide]	Hygroscopicity [2]: less hygroscopic than the sodium or potassium salt
dec. at 100 °C	Cc1[nH]c2ccccc2c1CCNCc1ccc(/C=C/C(=O)NO)cc1 [benzoate salt form SB, N-hydroxy-3-[4-[[[2-(2-methyl-1H-indol-3-yl)ethyl]amino]methyl]phenyl]-2E-2-propenamide]	LOD % (isothermal) [3]: 6.3%
	Cc1[nH]c2ccccc2c1CCNCc1ccc(/C=C/C(=O)NO)cc1 [mesylate salt form B, N-hydroxy-3-[4-[[[2-(2-methyl-1H-indol-3-yl)ethyl]amino]methyl]phenyl]-2E-2-propenamide]	Hygroscopicity ([2]; listed as mesylate salt white crystalline solid): non-hygroscopic
at 110 °C	Cc1[nH]c2ccccc2c1CCNCc1ccc(/C=C/C(=O)NO)cc1 [benzoate salt form SA, N-hydroxy-3-[4-[[[2-(2-methyl-1H-indol-3-yl)ethyl]amino]methyl]phenyl]-2E-2-propenamide]	LOD % (isothermal) [3]: 5.2%
179.6 °C	Cc1[nH]c2ccccc2c1CCNCc1ccc(/C=C/C(=O)NO)cc1 [phosphate salt form HA, N-hydroxy-3-[4-[[[2-(2-methyl-1H-indol-3-yl)ethyl]amino]methyl]phenyl]-2E-2-propenamide]	
	Cc1[nH]c2ccccc2c1CCNCc1ccc(/C=C/C(=O)NO)cc1 [sodium salt, N-hydroxy-3-[4-[[[2-(2-methyl-1H-indol-3-yl)ethyl]amino]methyl]phenyl]-2E-2-propenamide]	Hygroscopicity [2]: highly hygroscopic
235.5 °C	Cc1[nH]c2ccccc2c1CCNCc1ccc(/C=C/C(=O)NO)cc1 [gentisate salt form A, N-hydroxy-3-[4-[[[2-(2-methyl-1H-indol-3-yl)ethyl]amino]methyl]phenyl]-2E-2-propenamide]	
162 °C	Cc1[nH]c2ccccc2c1CCNCc1ccc(/C=C/C(=O)NO)cc1 [sulfate salt form SA, N-hydroxy-3-[4-[[[2-(2-methyl-1H-indol-3-yl)ethyl]amino]methyl]phenyl]-2E-2-propenamide]	
170.9 °C	Cc1[nH]c2ccccc2c1CCNCc1ccc(/C=C/C(=O)NO)cc1 [mesylate salt form A, N-hydroxy-3-[4-[[[2-(2-methyl-1H-indol-3-yl)ethyl]amino]methyl]phenyl]-2E-2-propenamide]	Hygroscopicity ([2]; listed as mesylate salt yellow powder): very highly hygroscopic
	Cc1[nH]c2ccccc2c1CCNCc1ccc(/C=C/C(=O)NO)cc1 [oxalate salts, N-hydroxy-3-[4-[[[2-(2-methyl-1H-indol-3-yl)ethyl]amino]methyl]phenyl]-2E-2-propenamide]	Hygroscopicity [2]: appear to absorb water during filtration
155.8 °C	Cc1[nH]c2ccccc2c1CCNCc1ccc(/C=C/C(=O)NO)cc1 [hemi-succinate salt form SA, N-hydroxy-3-[4-[[[2-(2-methyl-1H-indol-3-yl)ethyl]amino]methyl]phenyl]-2E-2-propenamide]	Tdesolvation [1]: (90.6) (2- ° C.
	Cc1[nH]c2ccccc2c1CCNCc1ccc(/C=C/C(=O)NO)cc1 [acetate salt form A, N-hydroxy-3-[4-[[[2-(2-methyl-1H-indol-3-yl)ethyl]amino]methyl]phenyl]-2E-2-propenamide]	Tdecomposition ([1]; salt formed in AcOEt at 60 °C): 147.9 °C; Tdecomposition ([1]; salt formed in IPA at 60 °C): 148.7 °C; Tdesolvation [1]: 72.5 °C
160.2 °C	Cc1[nH]c2ccccc2c1CCNCc1ccc(/C=C/C(=O)NO)cc1 [benzoate salt form A, N-hydroxy-3-[4-[[[2-(2-methyl-1H-indol-3-yl)ethyl]amino]methyl]phenyl]-2E-2-propenamide]	
147.9 °C	Cc1[nH]c2ccccc2c1CCNCc1ccc(/C=C/C(=O)NO)cc1 [acetate salt form SA, N-hydroxy-3-[4-[[[2-(2-methyl-1H-indol-3-yl)ethyl]amino]methyl]phenyl]-2E-2-propenamide]	Tdesolvation [1]: 107.9 °C
~160 °C	Cc1[nH]c2ccccc2c1CCNCc1ccc(/C=C/C(=O)NO)cc1 [sulfate salt form A, N-hydroxy-3-[4-[[[2-(2-methyl-1H-indol-3-yl)ethyl]amino]methyl]phenyl]-2E-2-propenamide]	Hygroscopicity [2]: hygroscopic
>160 °C	Cc1[nH]c2ccccc2c1CCNCc1ccc(/C=C/C(=O)NO)cc1 [hemi-tartarate salt form B, N-hydroxy-3-[4-[[[2-(2-methyl-1H-indol-3-yl)ethyl]amino]methyl]phenyl]-2E-2-propenamide]	
232.3 °C	Cc1[nH]c2ccccc2c1CCNCc1ccc(/C=C/C(=O)NO)cc1 [hydrochloride salt form A, N-hydroxy-3-[4-[[[2-(2-methyl-1H-indol-3-yl)ethyl]amino]methyl]phenyl]-2E-2-propenamide]	
	Cc1[nH]c2ccccc2c1CCNCc1ccc(/C=C/C(=O)NO)cc1 [hemi-malonate salt form A, N-hydroxy-3-[4-[[[2-(2-methyl-1H-indol-3-yl)ethyl]amino]methyl]phenyl]-2E-2-propenamide]	Tdecomposition ([1]; salt prepared in EtOH): 169.5 °C; Tdecomposition ([1]; salt prepared in IPA): 174.1 °C
